Laboratory results as given in EP0610377B1, “TRI-SUBSTITUTED TETRAHYDROFURAN ANTIFUNGALS” (SCHERING CORPORATION, priority 1991, dated 1993).

Experiments:
Format in all cases: in vivo
[1] = tested on: C. albicans C-43; test: Candida systemic model in CF1 mice infected IV with C. albicans C-43, oral treatment; settings: for %SURVIVAL: day 4 post-infection; for CFUs (GM): day 4, geometric mean of the logarithms of CFU remaining in the kidneys (dead mice counted as 10^9)
[2] = tested on: C. albicans C-65; test: Candida systemic model in normal and compromised CF1 mice infected with C. albicans C-65, oral treatment; settings: for CFUs (GM): geometric mean of the logarithms of CFU in the kidneys
[3] = tested on: Aspergillus flavus; test: Aspergillus flavus pulmonary infection model in compromised mice, oral treatment; settings: for %SURVIVAL: compromised CF-1 mice

Q: How did the “%SURVIVAL” value ([1]; 10 MPK PO in PEG-200, 1 a day x 4 days) turn out when `CCC(C)n1ncn(-c2ccc(N3CCN(c4ccc(OCC5COC(Cn6cncn6)(c6ccc(Cl)cc6Cl)O5)cc4)CC3)cc2)c1=O` (centres unmarked) [Itraconazole, reference compound] was run?
A: The value was 0%.

Q: What about the “CFUs (GM)” value ([1]; 10 MPK PO in PEG-200) of the same compound?
A: Its value is 9.00.

Q: And the “%SURVIVAL” value ([1]; 25 MPK PO in PEG-200, 1 a day x 4 days)?
A: Its value is 0%.

Q: And the “CFUs (GM)” value ([1]; 25 MPK PO in PEG-200)?
A: The value was 9.00.

Q: What about the “%SURVIVAL” value ([1]; 50 MPK PO in PEG-200, 1 a day x 4 days) of the same compound?
A: Its value is 60%.

Q: And the “CFUs (GM)” value ([1]; 50 MPK PO in PEG-200)?
A: Its value is 6.68.

Q: What about the “% S (Percent Survival)” value ([2]; 600 Rads Mice (compromised), 10 MPK PO in Beta-CD-H, 1/day x 4 days, day 4) of the same compound?
A: The value was 30%.

Q: What about the “CFUs (GM)” value ([2]; 600 Rads Mice (compromised), 10 MPK PO in Beta-CD-H, day 4) of the same compound?
A: Its value is 8.11.

Q: And the “% S (Percent Survival)” value ([2]; 600 Rads Mice (compromised), 10 MPK PO in PEG-200, 1/day x 4 days, day 4 post-infection)?
A: The value was 0%.

Q: And the “CFUs (GM)” value ([2]; 600 Rads Mice (compromised), 10 MPK PO in PEG-200, day 4)?
A: The value was 9.00.

Q: What about the “% S (Percent Survival)” value ([2]; 600 Rads Mice (compromised), 25 MPK PO in Beta-CD-H, 1/day x 4 days, day 4) of the same compound?
A: The value was 60%.

Q: And the “CFUs (GM)” value ([2]; 600 Rads Mice (compromised), 25 MPK PO in Beta-CD-H, day 4)?
A: The value was 7.98.

Q: What about the “% S (Percent Survival)” value ([2]; 600 Rads Mice (compromised), 25 MPK PO in PEG-200, 1/day x 4 days, day 4 post-infection) of the same compound?
A: The value was 0%.

Q: What about the “CFUs (GM)” value ([2]; 600 Rads Mice (compromised), 25 MPK PO in PEG-200, day 4) of the same compound?
A: The value was 9.00.

Q: And the “% S (Percent Survival)” value ([2]; 600 Rads Mice (compromised), 50 MPK PO in PEG-200, 1/day x 4 days, day 4 post-infection)?
A: Its value is 0%.

Q: What about the “CFUs (GM)” value ([2]; 600 Rads Mice (compromised), 50 MPK PO in PEG-200, day 4) of the same compound?
A: Its value is 9.00.

Q: What about the “% S (Percent Survival)” value ([2]; 600 Rads Mice (compromised), 100 MPK PO in PEG-200, 1/day x 4 days, day 4 post-infection) of the same compound?
A: The value was 20%.

Q: And the “CFUs (GM)” value ([2]; 600 Rads Mice (compromised), 100 MPK PO in PEG-200, day 4)?
A: The value was 8.45.

Q: What about the “% S (Percent Survival)” value ([2]; Normal Mice, 1 MPK PO in PEG-200, 1/day x 4 days, day 4 post-infection) of the same compound?
A: Its value is 0%.

Q: What about the “CFUs (GM)” value ([2]; Normal Mice, 1 MPK PO in PEG-200, day 4) of the same compound?
A: The value was 900.

Q: What about the “% S (Percent Survival)” value ([2]; Normal Mice, 10 MPK PO in Beta-CD-H (HPβCD vehicle for itraconazole), 1/day x 4 days, day 4) of the same compound?
A: The value was 0%.

Q: And the “CFUs (GM)” value ([2]; Normal Mice, 10 MPK PO in Beta-CD-H, day 4)?
A: The value was 9.00.

Q: What about the “% S (Percent Survival)” value ([2]; Normal Mice, 10 MPK PO in PEG-200, 1/day x 4 days, day 4 post-infection) of the same compound?
A: The value was 30%.

Q: What about the “CFUs (GM)” value ([2]; Normal Mice, 10 MPK PO in PEG-200, day 4) of the same compound?
A: Its value is 7.64.

Q: And the “% S (Percent Survival)” value ([2]; Normal Mice, 25 MPK PO in Beta-CD-H (HPβCD vehicle for itraconazole), 1/day x 4 days, day 4)?
A: The value was 100%.

Q: And the “CFUs (GM)” value ([2]; Normal Mice, 25 MPK PO in Beta-CD-H, day 4)?
A: Its value is 6.19.

Q: What about the “% S (Percent Survival)” value ([2]; Normal Mice, 25 MPK PO in PEG-200, 1/day x 4 days, day 4 post-infection) of the same compound?
A: The value was 50%.

Q: And the “CFUs (GM)” value ([2]; Normal Mice, 25 MPK PO in PEG-200, day 4)?
A: Its value is 6.93.

Q: And the “% S (Percent Survival)” value ([2]; Normal Mice, 50 MPK PO in PEG-200, 1/day x 4 days, day 4 post-infection)?
A: The value was 60%.

Q: And the “CFUs (GM)” value ([2]; Normal Mice, 50 MPK PO in PEG-200, day 4)?
A: Its value is 5.98.

Q: And the “%SURVIVAL” value ([3]; 33 mg/kg PO [3RX/DAY] for 4 days, 18 days post infection)?
A: Its value is 10%.

Q: What about the “%ANIMALS NEG” value ([3]; 33 mg/kg PO [3RX/DAY] for 4 days, 18 days post infection, negative = <10 colonies) of the same compound?
A: The value was 0%.

Q: And the “%SURVIVAL” value ([3]; 33 mg/kg PO once a day for 4 days, 18 days post infection)?
A: Its value is 0%.

Q: And the “%SURVIVAL” value ([3]; 66 mg/kg PO once a day for 4 days, 18 days post infection)?
A: The value was 0%.

Q: What about the “PERCENT SURVIVAL AFTER 5 DAYS (5D)” value ([3]; head prints 50 mg/kg (third dose column, c3), in PEG-200 daily for 4 days, CF-1 mice) of the same compound?
A: The value was 17.
